Laboratory results taken from patent US20110217771A1, “Fluidic Culture Device” (priority 2008, published 2011).

Molecular target: T1, collagen I matrix (Bos taurus, UniProt P02453+P02465)
T1 construct: purchased PureCol (product name as printed)
Assay: Gradient generation and characterization in the collagen I matrix of the culture chamber (fluorescence detection)
Protocol: Invasive angiogenic sprouting in three dimensions was studied by embedding organs or clusters of cells in a collagen I matrix composed of Ham's F12 medium (Promocell), 6.26 mM NaOH, 20 mM HEPES, 0.117% NaHCO3, 1% Glutamax-I (Gibco) and 1.5 mg/ml collagen I (PureCol). The flow channels were sealed prior to casting of the gel by the insertion of PDMS plugs. These were cut out a little wider than the channels (˜7×5×0.6 mm) to prevent the gel from leaking into the flow channels. The gel volume (20 μl) deposited in the culture chamber was approximately twice the size of the chamber volume to account for shrinkage and to make sure that the when the culture system was assembled the gel would be slightly compressed in order to occupy the entire culture chamber. […] The collagen gel was left to polymerize in a regular cell incubator at 37° C. and 5% CO2 for 2 hours. Organs or cell clusters were deposited into the center of the culture chamber using a Pasteur pipette in the beginning of the polymerization process. The tissue can be carefully positioned with a needle or by tapping the side of the culture chamber. Both organs and cells can be grown in the fluidic culture device in its open configuration with the culture chamber facing upwards for several days by adding cell media to cover the top of the open culture chamber.
Stock solutions of recombinant VEGFA165 (PeproTech), FGF2 (PeproTech) and VEGFC (R&D systems) were stored at −20° C. until further use. […]
Flow in the culture system was generated by connecting two syringes (connected to a syringe pump) to the channel inlets. […] No flow was recorded through the culture chamber when the flow rates in the source and sink channels were kept identical.
The gradient profile was initially characterized by detection of F-VEGFA. […] FIG. 10 illustrates time-lapse series of the central part of the culture chamber (1.7×1.3 mm) as a gradient of F-VEGFA is established; gradient formation in the culture chamber was detected by measuring the fluorescent signal. […] The profiles are recorded at the center of the chamber, indicated by black bar in FIG. 12. […]

[1] = collagen I matrix, flow 0.5 μl/min

T1 sequence (P02453 162-1217 limits assumed): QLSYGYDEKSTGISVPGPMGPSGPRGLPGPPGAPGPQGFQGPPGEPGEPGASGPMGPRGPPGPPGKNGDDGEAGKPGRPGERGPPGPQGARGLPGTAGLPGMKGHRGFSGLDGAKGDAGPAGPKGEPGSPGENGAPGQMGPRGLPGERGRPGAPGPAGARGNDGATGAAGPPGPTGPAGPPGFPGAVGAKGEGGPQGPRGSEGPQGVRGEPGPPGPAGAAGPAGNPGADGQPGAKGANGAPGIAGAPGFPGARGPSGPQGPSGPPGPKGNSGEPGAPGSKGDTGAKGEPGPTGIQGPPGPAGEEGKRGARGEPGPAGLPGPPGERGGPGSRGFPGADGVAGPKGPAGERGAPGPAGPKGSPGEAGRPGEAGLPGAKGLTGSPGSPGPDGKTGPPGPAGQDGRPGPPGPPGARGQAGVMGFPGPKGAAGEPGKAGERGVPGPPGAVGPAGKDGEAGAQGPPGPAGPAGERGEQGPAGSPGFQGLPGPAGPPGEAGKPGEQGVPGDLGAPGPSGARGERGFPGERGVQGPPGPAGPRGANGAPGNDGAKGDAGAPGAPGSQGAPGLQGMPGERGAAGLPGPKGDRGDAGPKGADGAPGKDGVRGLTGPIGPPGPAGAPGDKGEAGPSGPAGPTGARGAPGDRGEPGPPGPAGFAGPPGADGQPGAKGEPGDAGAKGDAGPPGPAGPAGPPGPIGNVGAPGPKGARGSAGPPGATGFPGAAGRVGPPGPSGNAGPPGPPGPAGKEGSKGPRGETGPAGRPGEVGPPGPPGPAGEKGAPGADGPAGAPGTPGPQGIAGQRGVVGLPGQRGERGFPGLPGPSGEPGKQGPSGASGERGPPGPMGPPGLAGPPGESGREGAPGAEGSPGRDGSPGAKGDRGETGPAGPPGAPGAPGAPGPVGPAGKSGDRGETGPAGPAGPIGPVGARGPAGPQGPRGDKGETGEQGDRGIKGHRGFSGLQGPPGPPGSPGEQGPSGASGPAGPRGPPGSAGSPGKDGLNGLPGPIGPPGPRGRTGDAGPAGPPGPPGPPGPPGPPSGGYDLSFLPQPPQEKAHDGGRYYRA
T1 sequence (P02465 80-1117 limits assumed): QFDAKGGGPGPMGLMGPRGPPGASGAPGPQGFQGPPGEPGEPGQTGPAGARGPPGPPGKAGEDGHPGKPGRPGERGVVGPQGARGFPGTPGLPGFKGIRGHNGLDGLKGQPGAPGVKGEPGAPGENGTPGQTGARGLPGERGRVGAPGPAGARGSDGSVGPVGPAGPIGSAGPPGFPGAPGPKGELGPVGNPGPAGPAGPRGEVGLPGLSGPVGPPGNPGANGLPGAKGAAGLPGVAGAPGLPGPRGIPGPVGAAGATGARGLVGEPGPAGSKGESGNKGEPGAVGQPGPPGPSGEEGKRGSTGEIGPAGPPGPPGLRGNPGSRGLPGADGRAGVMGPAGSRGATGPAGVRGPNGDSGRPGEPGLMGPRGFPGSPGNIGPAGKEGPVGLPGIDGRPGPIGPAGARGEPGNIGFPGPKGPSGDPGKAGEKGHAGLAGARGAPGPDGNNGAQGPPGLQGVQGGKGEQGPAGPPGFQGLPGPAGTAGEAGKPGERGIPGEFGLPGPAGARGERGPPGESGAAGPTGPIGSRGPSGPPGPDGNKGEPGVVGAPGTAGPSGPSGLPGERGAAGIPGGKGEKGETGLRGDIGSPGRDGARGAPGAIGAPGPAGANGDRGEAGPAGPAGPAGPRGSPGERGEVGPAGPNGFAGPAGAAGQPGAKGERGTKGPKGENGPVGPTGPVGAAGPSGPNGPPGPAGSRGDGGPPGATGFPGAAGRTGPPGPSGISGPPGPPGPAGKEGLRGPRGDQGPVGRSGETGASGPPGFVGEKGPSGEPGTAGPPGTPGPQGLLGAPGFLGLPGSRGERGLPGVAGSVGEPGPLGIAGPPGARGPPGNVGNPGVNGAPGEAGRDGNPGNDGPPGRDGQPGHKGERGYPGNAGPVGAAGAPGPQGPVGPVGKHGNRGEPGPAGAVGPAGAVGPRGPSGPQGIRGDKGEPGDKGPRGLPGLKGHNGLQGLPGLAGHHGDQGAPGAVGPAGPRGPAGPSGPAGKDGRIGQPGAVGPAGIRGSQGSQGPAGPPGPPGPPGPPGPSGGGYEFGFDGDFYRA

affinity for collagen I (accumulation at the edge of the gel) (1.5 mg/ml collagen I matrix): little or no affinity for collagen I
time after which the gradient was stable [1]: approximately 6 hours
time to formation of a linear gradient after onset of flow [1]: ≤ 2 h
Substance: FITC-dextran
